Article PMC11550483 (2024)

Each compound was assayed against SARS2 M^pro (Severe acute respiratory syndrome coronavirus 2, UniProt P0DTD1, P3395H).
Assay type: biochemical, SARS-CoV-2

Point of comparison: CCOc1ccccc1N1CCN(C(=O)c2ccc(Cl)c([N+](=O)[O-])c2)CC1 [MWAC-0001782, CCOc1ccccc1N2CCN(CC2)C(=O)c3ccc(Cl)c(c3)[N+](=O)[O-]], “% inhibition (20 µM) biochemical” value 0.51%. Against it:
- N#Cc1ccccc1CN1C(=O)C(=O)c2ccccc21 [MWAC-0001764, O=C1N(Cc2ccccc2C#N)c3ccccc3C1=O] — higher, 7%
- O=C1C(=O)N(Cc2ccc([N+](=O)[O-])cc2)c2ccc(Br)cc21 [MWAC-0001727, [O-][N+](=O)c1ccc(CN2C(=O)C(=O)c3cc(Br)ccc23)cc1] — higher, 65%
- COCCCNC(=O)/C(C#N)=C/c1cc(C)n(-c2ccc(F)cc2)c1C [MWAC-0001826, COCCCNC(=O)\C(=C\c1cc(C)n(c1C)c2ccc(F)cc2)\C#N] — higher, 5%
- Cc1ccc2c(CC(=O)NCc3ccco3)coc2c1C [MWAC-0001762, Cc1ccc2c(CC(=O)NCc3occc3)coc2c1C] — higher, 11%
- Cc1cccc(/N=C2/NC(=O)/C(=C\c3ccc(N(C)C)cc3)S2)c1 [MWAC-0001734, CN(C)c1ccc(\C=C/2\S\C(=N/c3cccc(C)c3)\NC2=O)cc1] — higher, 9%
- CC(=O)C1=C(O)C(=O)N(c2ccc(Br)cn2)C1c1ccc(Cl)cc1 (stereo not shown) [MWAC-0001809, CC(=O)C1=C(O)C(=O)N(C1c2ccc(Cl)cc2)c3ccc(Br)cn3] — higher, 16%
- Cc1ccc(/C=C/C(=O)Nc2ccccc2Br)o1 [MWAC-0001759, Cc1oc(\C=C\C(=O)Nc2ccccc2Br)cc1] — higher, 15%
- COc1ccc(-c2cc(=O)c3ccccc3s2)cc1 [MWAC-0001878, COc1ccc(cc1)C2=CC(=O)c3ccccc3S2] — lower, 0%
- O=C(NNC(=O)C(c1ccccc1)c1ccccc1)Nc1cccc(Cl)c1 [MWAC-0001779, Clc1cccc(NC(=O)NNC(=O)C(c2ccccc2)c3ccccc3)c1] — higher, 3%
- O=C(CCl)Nc1cn(-c2ccccc2)nc1-c1ccc(F)cc1 [MWAC-0001848, Fc1ccc(cc1)c2nn(cc2NC(=O)CCl)c3ccccc3] — higher, 13%
- Cc1ccc(C(NC(=O)CCl)c2cccs2)cc1 (stereo not shown) [MWAC-0001859, Cc1ccc(cc1)C(NC(=O)CCl)c2cccs2] — higher, 60%
- N#C/C(=C\c1c[nH]c2ccccc12)C(=O)NC1CC1 [MWAC-0001828, O=C(NC1CC1)\C(=C\c2c[nH]c3ccccc23)\C#N] — higher, 11%
- COc1cccc(Nc2ccc3ccccc3c2)c1 [MWAC-0001865, COc1cccc(Nc2ccc3ccccc3c2)c1] — lower, 0%
- Cc1ccccc1OCCOc1ccccc1/C=N/n1cnnc1 [MWAC-0001810, Cc1ccccc1OCCOc2ccccc2\C=N\n3cnnc3] — higher, 5%
- COc1ccc(CC(=O)N2CCC3(CC2)NC(=O)c2cc(Br)ccc2N3)cc1 [MWAC-0001841, COc1ccc(CC(=O)N2CCC3(CC2)NC(=O)c4cc(Br)ccc4N3)cc1] — lower, 0%
- O=C(CN1C(=O)C(=O)N(Cc2ccccc2)C1=O)Nc1cc(Cl)cc(Cl)c1 [MWAC-0001847, Clc1cc(Cl)cc(NC(=O)CN2C(=O)N(Cc3ccccc3)C(=O)C2=O)c1] — higher, 0.75%
- CCOc1ccccc1OCCCOc1ccccc1C=O [MWAC-0001794, CCOc1ccccc1OCCCOc2ccccc2C=O] — higher, 2.44%
- CCCN1C(=O)C2(c3cc(C)ccc31)N1CC3(C)CN2CC(C)(C1)C3=O (stereo not shown) [MWAC-0001760, CCCN1C(=O)C2(N3CC4(C)CN2CC(C)(C3)C4=O)c5cc(C)ccc15] — higher, 7%
- COc1ccc(CC(=O)NCc2ccccc2Cl)cc1 [MWAC-0001807, COc1ccc(CC(=O)NCc2ccccc2Cl)cc1] — higher, 1%
- Cc1cc(Br)cc2c1N(C)C(=O)C2(O)CC(=O)c1ccc(Cl)cc1 (stereo not shown) [MWAC-0001785, CN1C(=O)C(O)(CC(=O)c2ccc(Cl)cc2)c3cc(Br)cc(C)c13] — higher, 4.25%
- Cc1nn(CC(=O)NCc2ccc3c(c2)OCO3)c(=O)c2c1cnn2C(C)(C)C [MWAC-0000539, CC1=NN(CC(=O)NCc2ccc3OCOc3c2)C(=O)c4c1cnn4C(C)(C)C] — higher, 19%
- Nc1ccc(C(=O)Nc2ccccc2N)cc1 [MWAC-0001836, Nc1ccc(cc1)C(=O)Nc2ccccc2N] — higher, 5%
- Cc1ccc(Cl)cc1-n1c(SCc2ccccc2Cl)nc2[nH]ncc2c1=O [MWAC-0001740, Cc1ccc(Cl)cc1N2C(=Nc3[nH]ncc3C2=O)SCc4ccccc4Cl] — higher, 9%
- CCOC(=O)C(=O)Nc1sc(C(=O)Nc2cccc(Cl)c2)c(C)c1C(=O)OC [MWAC-0001843, CCOC(=O)C(=O)Nc1sc(C(=O)Nc2cccc(Cl)c2)c(C)c1C(=O)OC] — higher, 5.71%
- Cc1cccc2c1NC(=O)/C2=C\C(=O)c1cccs1 [MWAC-0001756, Cc1cccc2\C(=C\C(=O)c3cccs3)\C(=O)Nc12] — higher, 13%
- CCCCS(=O)(=O)N(O)c1ccc(Cl)cc1 [MWAC-0001856, CCCCS(=O)(=O)N(O)c1ccc(Cl)cc1] — higher, 4%
- O=Cc1ccccc1OCc1ccc2c(c1)OCO2 [MWAC-0001842, O=Cc1ccccc1OCc2ccc3OCOc3c2] — higher, 11%
- COCCNc1nc2cc(C)ccc2[nH]1 [MWAC-0001822, COCCNc1nc2cc(C)ccc2[nH]1] — higher, 3%
- O=C(Nc1nccs1)c1ccc(F)cc1[N+](=O)[O-] [MWAC-0001876, [O-][N+](=O)c1cc(F)ccc1C(=O)Nc2nccs2] — lower, 0%
- CC(=O)Nc1ccc(OS(=O)(=O)c2ccc(Cl)c3ccccc23)cc1 [MWAC-0001803, CC(=O)Nc1ccc(OS(=O)(=O)c2ccc(Cl)c3ccccc23)cc1] — higher, 1.42%
- CCCN1C(=O)C(O)(CC(=O)c2cc(OC)ccc2OC)c2cc(Br)ccc21 (stereo not shown) [MWAC-0001752, CCCN1C(=O)C(O)(CC(=O)c2cc(OC)ccc2OC)c3cc(Br)ccc13] — higher, 33%
- Nc1c(C(=O)c2ccccc2)sc2nc3c(cc12)CCC3 [MWAC-0001815, Nc1c(sc2nc3CCCc3cc12)C(=O)c4ccccc4] — higher, 27%
- CCCCN1C(=O)C(O)(CC(=O)c2cccc(OC)c2)c2cc(Br)ccc21 (stereo not shown) [MWAC-0001744, CCCCN1C(=O)C(O)(CC(=O)c2cccc(OC)c2)c3cc(Br)ccc13] — higher, 10%
- O=C1NC(=S)NC(=O)C1=Cc1ccccc1OS(=O)(=O)c1ccc2ccccc2c1 [MWAC-0001813, O=C1NC(=S)NC(=O)C1=Cc2ccccc2OS(=O)(=O)c3ccc4ccccc4c3] — higher, 4.38%
- CCOC(=O)N1CCN(c2nncc(-c3ccc4ccccc4c3)n2)CC1 [MWAC-0001757, CCOC(=O)N1CCN(CC1)c2nncc(n2)c3ccc4ccccc4c3] — higher, 38%
- Cc1ccc2nc(-c3ccc(SCC(=O)Nc4nc(C)cs4)nc3)[nH]c2c1 [MWAC-0001838, Cc1ccc2nc([nH]c2c1)c3ccc(SCC(=O)Nc4nc(C)cs4)nc3] — higher, 2.56%
- O=C(CC(SCc1ccco1)c1ccc(Cl)cc1)c1cccs1 (stereo not shown) [MWAC-0001874, Clc1ccc(cc1)C(CC(=O)c2cccs2)SCc3occc3] — lower, 0%
- O=C(c1cccnc1)N1CCN(c2ccc(Cl)c(Cl)c2)CC1 [MWAC-0001776, Clc1ccc(cc1Cl)N2CCN(CC2)C(=O)c3cccnc3] — higher, 47%
- COc1ccc(C2=NN3C(C2)c2ccccc2OC32C(=O)Nc3ccccc32)cc1OC (stereo not shown) [MWAC-0001819, COc1ccc(cc1OC)C2=NN3C(C2)c4ccccc4OC35C(=O)Nc6ccccc56] — higher, 0.611%
- CCOc1ccc(/C=C2\SC(Nc3ccccc3O)=NC2=O)cc1 [MWAC-0001811, CCOc1ccc(\C=C\2/SC(=NC2=O)Nc3ccccc3O)cc1] — higher, 5.42%
- COC(=O)c1ccc(C(=O)Nc2ccccc2N)cc1 [MWAC-0001884, COC(=O)c1ccc(cc1)C(=O)Nc2ccccc2N] — lower, 0%
- Cc1cc(C(=O)CCl)c(C)n1Cc1ccco1 [MWAC-0001817, Cc1cc(C(=O)CCl)c(C)n1Cc2occc2] — higher, 62%
- COC(=O)c1c(NC(=O)CCl)sc(C(=O)N2CCOCC2)c1C [MWAC-0001850, COC(=O)c1c(C)c(sc1NC(=O)CCl)C(=O)N2CCOCC2] — higher, 74%
- Fc1nc(F)c(F)c(SC(=S)N2CCOCC2)c1F [MWAC-0001725, Fc1nc(F)c(F)c(SC(=S)N2CCOCC2)c1F] — higher, 3.69%
- CCc1c(C)sc(NC(=O)CCc2ccccc2)c1C(N)=O [MWAC-0001812, CCc1c(C)sc(NC(=O)CCc2ccccc2)c1C(=O)N] — higher, 4%
- CCN1C(=O)C(O)(CC(=O)c2ccco2)c2cc(Br)ccc21 (stereo not shown) [MWAC-0001784, CCN1C(=O)C(O)(CC(=O)c2occc2)c3cc(Br)ccc13] — higher, 3%
- C=CCN1C(=O)C(O)(CC(=O)c2cccc(OC)c2)c2cc(Br)ccc21 (stereo not shown) [MWAC-0001778, COc1cccc(c1)C(=O)CC2(O)C(=O)N(CC=C)c3ccc(Br)cc23] — higher, 2.82%
- CCOCCCNC(=O)c1ccc(Cl)c([N+](=O)[O-])c1 [MWAC-0001781, CCOCCCNC(=O)c1ccc(Cl)c(c1)[N+](=O)[O-]] — lower, 0%
- O=C(Nc1nc2ccccc2[nH]1)c1ccc(Br)o1 [MWAC-0001805, Brc1oc(cc1)C(=O)Nc2nc3ccccc3[nH]2] — higher, 9%
- COc1cc(CSc2nnc[nH]2)c(OC)cc1CSc1nnc[nH]1 [MWAC-0001824, COc1cc(CSc2nnc[nH]2)c(OC)cc1CSc3nnc[nH]3] — lower, 0%
- CCCN1C(=O)C(O)(CC(=O)c2ccccc2OC)c2cc(Br)ccc21 (stereo not shown) [MWAC-0001769, CCCN1C(=O)C(O)(CC(=O)c2ccccc2OC)c3cc(Br)ccc13] — higher, 2.64%
- COc1ccc(C2=NN3C(C2)c2ccccc2OC3c2ccc(C(C)(C)C)cc2)cc1 (stereo not shown) [MWAC-0001719, COc1ccc(cc1)C2=NN3C(C2)c4ccccc4OC3c5ccc(cc5)C(C)(C)C] — higher, 5%
- NC(=O)c1ccccc1NC(=O)/C=C/C(=O)O [MWAC-0001765, NC(=O)c1ccccc1NC(=O)\C=C\C(=O)O] — higher, 6.4%
- COc1cccc(C(=O)NN2C(=S)N(c3ccccc3)C(=O)C2CC(N)=O)c1 (stereo not shown) [MWAC-0001743, COc1cccc(c1)C(=O)NN2C(CC(=O)N)C(=O)N(C2=S)c3ccccc3] — higher, 6%
